Assays:
[1] = test system: streptozotocin-induced rat model; assay: Test using streptozotocin-induced rat model (nociceptive threshold, von Frey); type: in vivo; conditions: for Nociceptive threshold improve rate (%) 7 days after withdrawal of administration: 0.3 mg/kg oral once per day day 14 to 28, 35 days after STZ; for Nociceptive threshold improve rate (%) After initial single administration: 14 days after STZ, 2 hours after administration; for Nociceptive threshold improve rate (%) 7 days after start of administration: 21 days after STZ; for Nociceptive threshold improve rate (%) 14 days after start of administration: 28 days after STZ
Procedure: Biological Experiment Example 2: Test Using Streptozotocin-Induced Rat Model
In order to evaluate the therapeutic effect of each of the compounds of the present invention on diabetic peripheral neuropathy, an in vivo test using a streptozotocin model was carried out.
A model was produced by intravenously administering streptozotocin (abbreviated as “STZ”, hereinafter) one time at a dose amount of 55 mg/kg to a rat.
(2) Measurement of Nociceptive Threshold
The rat was placed in a clear acryl measurement cage once or more times for 10 minutes or longer until the administration of STZ started. In this manner, the rat was acclimated to the measurement environment. Eight von Frey filaments respectively having weights of 0.4, 0.6, 1, 2, 4, 6, 8 and 15 g were applied vertically to a hindpaw of the rat from under a metallic mesh floor. When a quick escape or flinching reaction was observed, it was determined that a positive reaction occurred (i.e., “response was observed”). Each of the compounds of the present invention was administered orally once per day in a period from day 14 to day 28 after the administration of STZ, wherein the dose amount of each of the compounds was 0.03, 0.3 or 3 mg/kg. A nociceptive threshold was measured 2 hours after the administration of each of the compounds of the present invention at the timings of before the administration of STZ, 14 days after the administration of STZ (i.e., the day of the start of the administration of each of the compounds of the present invention), 21 days after the administration of STZ (i.e., 7 days after the start of the administration of the compound), 28 days after the administration of STZ (i.e., 14 days after the start of the administration of the compound), and 35 days after the administration of STZ (i.e., 7 days after the withdrawal of the administration of the compound).
The nociceptive threshold was measured by the up-down method in accordance with the method of Chaplan et. al. (J Neurosci Methods. 1994; 53:55-63). The rate of improvement in the nociceptive threshold was calculated in accordance with the following formula. Nociceptive threshold improve rate (%)=(nociceptive threshold on each of the number of days elapsed after administration of STZ−B)/(A−B)×100 [Math 2] • A: Nociceptive threshold before administration of STZ • B: Nociceptive threshold on 14 days elapsed after administration of STZ (Results)
The results of the nociceptive thresholds and the nociceptive threshold improve rates obtained when each of the compounds of the present invention was administered at a dose amount of 0.3 mg/kg are shown in the FIGURE and Table 2, respectively. With respect to all of the compounds, a potent pain relief effect against peripheral neuropathy was observed. With respect to the compound of Example 11, for example, the improvement in the nociceptive threshold was observed from 7 days after the start of the administration of the compound, and this effect lasted even 7 days after the withdrawal of the administration.

rat Schwann cells = assay: In vitro test using Schwann cells (Schwann cell differentiation promotion, MAG immunostaining); type: cell-based; conditions: Rattus norvegicus, 72 h, 3 days, MAG-positive area/cell nuclei; for activity at 0.3 µM: compound 0.3 μmol/L, read-out: Schwann cell differentiation promotion rate (% of vehicle) 0.3 μmol/L; for activity at 3 µM: compound 3 μmol/L, read-out: Schwann cell differentiation promotion rate (% of vehicle) 3 μmol/L
Procedure: Biological Experiment Example 1: In Vitro Test Using Schwann Cells
• (1) Preparation of rat Schwann cells
A dorsal root ganglion (abbreviated as “DRG”, hereinafter) was excised from a newborn rat aged 0 to 2 days in a clean bench and was collected in DMEM. After the collection, the tube was centrifuged at 400 g, at room temperature for 3 minutes, then a supernatant was discarded, and a 0.25% collagenase solution was added. There resultant solution was incubated at 37° C. for 30 minutes to disperse and separate the excised DRG, and was then centrifuged at room temperature at 400 g for 3 minutes, then a supernatant was discarded, and then 0.25% Trypsin/EDTA and DNaseI were added. After the incubation at 37° C. for 30 minutes, trypsin was inactivated with DMEM supplemented with 10% FBS (10% FBS-DMEM), and centrifugation was carried out at room temperature at 400 g for 3 minutes. A supernatant was discarded, then 10% FBS-DMEM was added to the residue to prepare a cell suspension, and then the cell suspension was allowed to pass through a filter (diameter: 70 μm). The number of cells in the cell suspension which passed through the filter was counted to prepare a solution having a concentration of 2.0×10^5 cells/mL, and the suspension was seeded in a poly-D-lysine-coated 96-well black-clear plate in an amount of 100 μL/well and was then statically cultured in a CO2 incubator under the conditions including 5% of CO2, 95% of air and 37° C.
The culture medium in the cell culture plate was removed by suction using an aspirator, and then DMEM supplemented with 1% dialyzed FBS and 100 μmol/L dibutyryl cyclic AMP was added. Subsequently, a solution of a compound of the present invention dissolved in DMSO was added, and the resultant solution was statically cultured in a C02 incubator under the conditions including 5% of C02, 95% of air and a temperature of 37° C. The final concentration of the compound of the present invention in each well in the cell culture plate was adjusted to 0.1, 0.3, 1 or 3 μmol/L.
Three days after the treatment with the compound, formaldehyde was added to each well in the cell culture plate, and the cell culture plate was allowed to stand at room temperature for 30 minutes or longer. A supernatant was discarded, and then a 0.3% tritonX-100 solution was added to each well, and then the cell culture plate was allowed to stand at room temperature for 20 minutes or longer. A supernatant was discarded, then a 5-μg/mL anti-myeline-associated glycoprotein antibody (anti-MAG antibody) solution was added to each well, and then the cell culture plate was allowed to stand at room temperature for 60 minutes or longer or at 4° C. (acceptable range: 1 to 9° C.) overnight. Each well was washed with a 0.1% tritonX-100 solution three times, then a 10-μg/mL Alexa fluor 488 anti-mouse IgG solution was added to each well, and then the cell culture plate was allowed to stand at room temperature for 60 or longer or at 4° C. overnight. Each well was washed with a 0.1% tritonX-100 solution four times, and then a 1-μg/mL Hoechst33342 solution was added to each well to stain nuclei.
The Mag-positive area and the number of cell nuclei in a fluorescent image were calculated. With respect to each of the MAG-positive area and the number of cell nuclei, the sum total of values obtained in 5 viewing fields/well was determined. The values were employed as a value for the MAG-positive area and a value for the number of cell nuclei, respectively, in each well. Subsequently, a value determined by dividing the value for the MAG-positive area in each well by the value for the number of cell nuclei in the well (i.e., MAG/cell nuclei numerical value) was calculated. The Schwann cell differentiation promotion rate was determined for each of the vehicles in accordance with the following formula. […]

Row | SMILES | Nociceptive threshold improve rate (%) 7 days after withdrawal of administration [1] [%] | Nociceptive threshold improve rate (%) After initial single administration ([1]; 0.3 mg/kg oral once per day) [%] | Nociceptive threshold improve rate (%) 7 days after start of administration ([1]; 0.3 mg/kg oral once per day) [%] | Nociceptive threshold improve rate (%) 14 days after start of administration ([1]; 0.3 mg/kg oral once per day) [%] | activity at 0.3 µM (rat Schwann cells) [%] | activity at 3 µM (rat Schwann cells) [%] | Pain relief effect against peripheral neuropathy ([1]; 0.3 mg/kg oral once per day, STZ rat)
1 | O=C(O)CCc1ccccc1OCC[C@@H](O)CCc1cccc(C(O)Cc2ccccc2)c1 (stereo in doubt) [Example 36, 3-[2-[(3S)-3-Hydroxy-5-[3-[(1R)-1-hydroxy-2-phenylethyl]phenyl]pentoxy]phenyl]propanoic acid] | 57.4 ± 10.74 | 3.6 ± 7.07 | 57.1 ± 13.78 | 64.2 ± 13.02 | 126 | 732 | 
2 | O=C(O)CCc1ccccc1OCC[C@@H](O)/C=C/c1cccc(NS(=O)(=O)C2CCCC2)c1 [Example 74(13), 3-[2-[(E,3R)-5-[3-(Cyclopentylsulfonylamino)phenyl]-3-hydroxypent-4-enoxy]phenyl]propanoic acid] | 76.3 ± 13.41 | 2.6 ± 1.69 | 28.3 ± 7.44 | 57.3 ± 17.63 | 79.9 | 184 | 
3 | O=C(O)CCc1ccccc1OCC[C@@H](O)/C=C/c1cccc2c1CCN2S(=O)(=O)c1ccccc1 [Example 13(15), 3-[2-[(E,3R)-5-[1-(Benzenesulfonyl)-2,3-dihydroindol-4-yl]-3-hydroxypent-4-enoxy]phenyl]propanoic Acid] | 7.1 ± 9.51 | −15.4 ± 14.26 | 15.9 ± 7.17 | 8.5 ± 11.50 | 219 | 326 | 
4 | O=C(O)CCc1ccccc1OCC[C@@H](O)/C=C/c1cccc(NS(=O)(=O)c2ccccc2)c1 [Example 11, 3-[2-[(E,3R)-5-[3-(Benzenesulfonamido)phenyl]-3-hydroxypent-4-enoxy]phenyl]propanoic acid] | 41.1 ± 13.71 | −14.6 ± 6.37 | 26.6 ± 9.30 | 27.1 ± 8.39 | 114 | 248 | a sustained pain relief effect was confirmed

From patent US12258308B2, “Benzene derivative” (ONO PHARMACEUTICAL CO., LTD., priority 2018, dated 2025)
